Data taken from patent publication US20190387739A1, “HERBICIDAL COMBINATION CONTAINING TRIAFAMONE AND INDAZIFLAM” (Bayer CropScience Aktiengesellschaft, priority 2016, published 2019).

Columns and labels:
Format in all cases: in vivo
[1] = system: Alopecurus myosuroides; assay: Greenhouse post-emergence herbicidal effect against Alopecurus myosuroides; details: 408 h, 17 DAA, read-out: % Efficacy; for Emax at 5 g/ha: individual application 5 g of AS/ha
Procedure: (§1) Post-emergence action against weeds
(§2) Seeds or rhizome pieces of mono- and dicotyledonous harmful plants and of crop plants were placed in sandy loam in plastic pots having a diameter of 4 cm, covered with soil and cultivated in a greenhouse under good growth conditions.
(§3) Ten to twenty days after sowing, the test plants were treated at the one- to three-leaf stage. The herbicide/active compound combinations according to the invention (mixture applications) formulated as suspensions and, in parallel tests, the correspondingly formulated individual active compounds (individual applications) were then sprayed onto the green parts of the plants in various dosages at a water application rate of 300 I/ha (converted).
(§4) After the test plants had been kept in the greenhouse under optimum growth conditions for a certain period of time (DAA, days after application), the herbicidal activity was assessed visually by comparison of treated and untreated plants. The percentages mean: 0%=no herbicidal activity, 100%=the plants die off completely.
(§5) The percentages from the treatments with the herbicides alone (individual applications) and with the combinations according to the invention (mixture applications) were employed to calculate interactions using the method of Colby. When the observed efficacies of the mixture applications exceed the formal sum of the values of the tests with individual applications, they also exceed the expected value according to Colby, which is calculated using the formula below (cf. S. R. Colby; in Weeds 15 (1967) pp. 20 to 22):
(§6) Here: • A, B=activity of component A (triafamone) or B (indaziflam) in percent at a dosage of a and b, respectively, in g of AS/ha (gram of active substance per hectare). • exp. expected value in % at a dosage of a+b g of ai/ha. • b) Results
(§7) The abbreviations in the tables below have the following meanings: • DAA=days after application • g of AS/ha=grams of active substance per hectare • % efficacy=herbicidal effect in percent • meas.=measured values • exp.=expected values according to Colby (calculation: see above) • syn.%=difference (%) of measured value from expected value (%) (measured value minus expected value)/

[2] = system: Hordeum murinum; assay: Greenhouse post-emergence herbicidal effect against Hordeum murinum; details: 408 h, 17 DAA, read-out: % Efficacy; for Emax at 20 g/ha: individual application 20 g of AS/ha
Procedure: as §1, §2, §3, §4, §5, §6, §7

[3] = system: Avena fatua; assay: Greenhouse post-emergence herbicidal effect against Avena fatua; details: 408 h, 17 DAA, read-out: % Efficacy
Procedure: as §1, §2
(§8) Ten to twenty days after sowing, the test plants were treated at the one- to three-leaf stage. […]
(§9) After the test plants had been kept in the greenhouse under optimum growth conditions for a certain period of time (DAA, days after application), the herbicidal activity was assessed visually by comparison of treated and untreated plants. […]
as §5, with “22): […]” for “22):”

[4] = system: Zea mays; assay: Greenhouse post-emergence herbicidal effect against Zea mays; details: 408 h, 17 DAA, read-out: % Efficacy; for Emax at 10 g/ha: individual application 10 g of AS/ha
Procedure: as §1, §2, §3, §4, §5, §6, §7

[5] = system: Lolium rigidum; assay: Greenhouse post-emergence herbicidal effect against Lolium rigidum; details: 216 h, 9 DAA, read-out: % Efficacy; for Emax at 10 g/ha: individual application 10 g of AS/ha; for Emax at 20 g/ha: individual application 20 g of AS/ha
Procedure: as §1, §2, §3, §4, §5, §6, §7

[6] = system: Triticum aestivum; assay: Greenhouse post-emergence herbicidal effect against Triticum aestivum; details: 216 h, 9 DAA, read-out: % Efficacy; for Emax at 5 g/ha: individual application 5 g of AS/ha; for Emax at 10 g/ha: individual application 10 g of AS/ha; for Emax at 20 g/ha: individual application 20 g of AS/ha
Procedure: as §1, §2, §3, §4, §5, §6, §7

[7] = system: Viola tricolor; assay: Greenhouse post-emergence herbicidal effect against Viola tricolor; details: 408 h, 17 DAA, read-out: % Efficacy; for Emax at 5 g/ha: individual application 5 g of AS/ha
Procedure: as §1, §2, §3, §4, §5, §6, §7

[8] = system: Glycine max; assay: Greenhouse post-emergence herbicidal effect against Glycine max; details: 408 h, 17 DAA, read-out: % Efficacy; for Emax at 10 g/ha: individual application 10 g of AS/ha
Procedure: as §1, §2, §3, §4, §5, §6, §7

[9] = system: mono- and dicotyledonous harmful plants and crop plants; assay: Greenhouse trials, discussion of the results over all test plants; details: at the dosages tested, post-emergence
Procedure: as §1, §2, §8, §9
as §5, with “22): […]” for “22):”

[10] = individual application 10 g of AS/ha
[11] = individual application 20 g of AS/ha
[12] = individual application 5 g of AS/ha
[13] = individual application 2.5 g of AS/ha

SMILES	Emax at 5 g/ha [1]	Emax at 20 g/ha [2]	Emax at 10 g/ha [4]	Emax at 10 g/ha [5]	Emax at 20 g/ha [5]	Emax at 5 g/ha [6]	Emax at 10 g/ha [6]	Emax at 20 g/ha [6]	Emax at 5 g/ha [7]	Emax at 10 g/ha [8]	further results
Cc1ccc2c(c1)[C@H](Nc1nc(N)nc(C(C)F)n1)[C@@H](C)C2 (stereo partly drawn) [indaziflam]	15%	40%	0%	63%	70%	23%	23%	48%	80%	73%	Emax at 10 g/ha [1, 10]: 60%; Emax at 20 g/ha [1, 11]: 75%; Emax at 5 g/ha [3, 12]: 10%; Emax at 20 g/ha [4, 11]: 25%; Emax at 40 g/ha ([6]; individual application 40 g of AS/ha): 63%; Emax at 5 g/ha [8, 12]: 50%
COc1nc(OC)nc(C(=O)c2cccc(F)c2N(C)S(=O)(=O)C(F)F)n1 [triafamone]	50%	0%	0%	0%	18%	0%	0%	13%	0%	0%	Emax at 2.5 g/ha [1, 13]: 25%; Emax at 2.5 g/ha [2, 13]: 0%; Emax at 5 g/ha [2, 12]: 0%; Emax at 10 g/ha [3, 10]: 0%; Emax at 2.5 g/ha [4, 13]: 0%; Emax at 5 g/ha [4, 12]: 0%; herbicidal efficacy as individual herbicide [9]: frequently ineffective; Emax at 2.5 g/ha [5, 13]: 0%; Emax at 5 g/ha [5, 12]: 0%; Emax at 2.5 g/ha [6, 13]: 0%; Emax at 2.5 g/ha [7, 13]: 0%; Emax at 10 g/ha [7, 10]: 0%; Emax at 2.5 g/ha [8, 13]: 0%
